This is an account of results in ChEMBL document CHEMBL6083234, “Discovery of novel 1,4-dicarbonylthiosemicarbazides as DNA gyrase inhibitors for the treatment of MRSA infection” (Eur J Med Chem, 2024).

Converted amounts (≈) assume the structure as drawn.

The subject of assay [1] is Staphylococcus aureus. The assay can be described thus: Antibacterial activity against methicillin-resistant Staphylococcus aureus incubated for 24 hrs by CLSI protocol based broth microdilution method. The class given is functional. On the technique in general: In broth dilution the organism is exposed to a series of concentrations in liquid medium.
Assay [2] addresses T1, DNA gyrase (Staphylococcus aureus, UniProt P0A0K8+P20831). The assay can be described thus: Inhibition of Staphylococcus aureus DNA gyrase supercoiling using supercoiled pBR322 DNA as substrate incubated for 60 mins by ethidium bromide staining based analysis. Format: protein-complex assay.
Assay [3] deals with T2, Topoisomerase IV (Staphylococcus aureus, UniProt P0C1S7+P0C1U9). Description: Inhibition of Staphylococcus aureus DNA topoisomerase 4 decatenation activity incubated for 1 hrs by ethidium bromide staining based analysis. Format: protein-complex assay.
In assay [4] the test system is Staphylococcus aureus. The assay can be described thus: Antibacterial activity against Staphylococcus aureus ATCC 25923 incubated for 24 hrs by CLSI protocol based broth microdilution method. The class given is functional.
The subject of assay [5] is Staphylococcus aureus. The assay can be described thus: Antibacterial activity against methicillin-resistant Staphylococcus aureus (15 strains) assessed as inhibition of bacterial growth incubated for 18 to 24 hrs by broth microdilution method. Format: functional. As to conditions: time 18-24 hrs.
In assay [6] the test system is Staphylococcus aureus. The assay can be described thus: Antibacterial activity against methicillin-resistant Staphylococcus aureus clinical isolate 16-1 infected in kunming mouse model assessed as survival rate at 3.5 mg/kg, iv pre-infected with bacteria for 10 mins followed by compound administration and measured for 7 days (reference value: 0 %). The class given is functional. The conditions noted are these: 168 h, time 7 day.

Assay [7] deals with Staphylococcus aureus. The assay can be described thus: Antibacterial activity against Staphylococcus aureus ATCC 29213 assessed as inhibition of bacterial growth incubated for 18 to 24 hrs by broth microdilution method. The class given is functional. The conditions noted are these: time 18-24 hrs.
Assay [8] has as its system Staphylococcus aureus. The assay can be described thus: Antibacterial activity against methicillin-resistant Staphylococcus aureus clinical isolate 16-1 infected in kunming mouse model assessed as survival rate at 5 mg/kg, iv pre-infected with bacteria for 10 mins followed by compound administration and measured for 7 days (reference value: 0 %). As to conditions: 168 h, time 7 day. Format: functional.

Assay [9] has as its system Staphylococcus aureus. Description: Antibacterial activity against methicillin-resistant Staphylococcus aureus clinical isolate 16-1 infected in kunming mouse model assessed as survival rate at 7 mg/kg, iv pre-infected with bacteria for 10 mins followed by compound administration and measured for 7 days (reference value: 0 %). Format: functional. The conditions noted are these: 168 h, time 7 day.

For assay [10], the system named is Staphylococcus aureus. Description: Antibacterial activity against methicillin-resistant Staphylococcus aureus clinical isolate 16-1 infected in kunming mouse model assessed as survival rate at 10 mg/kg, iv pre-infected with bacteria for 10 mins followed by compound administration and measured for 7 days (reference value: 0 %). As to conditions: 168 h, time 7 day. The class given is functional.

In assay [11] the target is T1, DNA gyrase. The assay can be described thus: Inhibition of Staphylococcus aureus DNA gyrase using supercoiled pBR322 as substrate preincubated for 1 hrs followed by proteinase K addition and measured after 30 mins by agarose gel electrophoresis. Format: protein-complex assay.
Assay [12] deals with T2, Topoisomerase IV. The assay can be described thus: Inhibition of Staphylococcus aureus DNA topoisomerase 4 using linear pBR322 as substrate preincubated for 10 mins followed by ATP addition and measured after 1 hrs ATP hydrolysis assay. Format: protein-complex assay.
Assay [13] concerns Staphylococcus aureus. The assay can be described thus: Antibacterial activity against Staphylococcus aureus clinical isolates incubated for 18 hrs by Mueller-Hinton broth based assay. The class given is functional.
Assay [14] has as its system Staphylococcus aureus. The assay can be described thus: Antibacterial activity against methicillin-resistant Staphylococcus aureus incubated for 18 hrs by CLSI protocol based broth microdilution method. Format: functional.
Assay [15] concerns the target T3, Ribonuclease P protein component (Staphylococcus aureus, UniProt P0A0H5).
T3 sequence (P0A0H5 whole entry): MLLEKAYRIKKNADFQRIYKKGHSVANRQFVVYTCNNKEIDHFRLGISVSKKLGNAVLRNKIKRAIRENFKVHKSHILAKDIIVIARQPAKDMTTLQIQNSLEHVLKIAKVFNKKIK
Description: Inhibition of Staphylococcus aureus RnpA-mediated RNA degradation incubated for 20 mins by fluorescence-based high through-put assay.

T1 sequence (P0A0K8 whole entry): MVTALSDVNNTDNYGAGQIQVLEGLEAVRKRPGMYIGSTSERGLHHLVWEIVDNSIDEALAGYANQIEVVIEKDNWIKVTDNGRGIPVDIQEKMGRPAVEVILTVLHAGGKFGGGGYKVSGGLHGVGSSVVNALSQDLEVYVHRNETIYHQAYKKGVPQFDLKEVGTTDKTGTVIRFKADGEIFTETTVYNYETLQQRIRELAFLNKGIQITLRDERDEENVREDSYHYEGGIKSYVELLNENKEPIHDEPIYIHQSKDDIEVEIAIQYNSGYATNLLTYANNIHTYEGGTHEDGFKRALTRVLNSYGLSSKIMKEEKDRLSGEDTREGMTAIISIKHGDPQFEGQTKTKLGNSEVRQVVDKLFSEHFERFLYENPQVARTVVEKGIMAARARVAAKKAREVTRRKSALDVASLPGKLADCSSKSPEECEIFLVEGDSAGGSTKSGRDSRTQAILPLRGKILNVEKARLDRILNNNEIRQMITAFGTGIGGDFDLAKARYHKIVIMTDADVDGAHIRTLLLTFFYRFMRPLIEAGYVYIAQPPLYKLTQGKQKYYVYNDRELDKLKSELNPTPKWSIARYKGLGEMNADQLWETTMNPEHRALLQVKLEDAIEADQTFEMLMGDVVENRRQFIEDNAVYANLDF
T1 sequence (P20831 whole entry): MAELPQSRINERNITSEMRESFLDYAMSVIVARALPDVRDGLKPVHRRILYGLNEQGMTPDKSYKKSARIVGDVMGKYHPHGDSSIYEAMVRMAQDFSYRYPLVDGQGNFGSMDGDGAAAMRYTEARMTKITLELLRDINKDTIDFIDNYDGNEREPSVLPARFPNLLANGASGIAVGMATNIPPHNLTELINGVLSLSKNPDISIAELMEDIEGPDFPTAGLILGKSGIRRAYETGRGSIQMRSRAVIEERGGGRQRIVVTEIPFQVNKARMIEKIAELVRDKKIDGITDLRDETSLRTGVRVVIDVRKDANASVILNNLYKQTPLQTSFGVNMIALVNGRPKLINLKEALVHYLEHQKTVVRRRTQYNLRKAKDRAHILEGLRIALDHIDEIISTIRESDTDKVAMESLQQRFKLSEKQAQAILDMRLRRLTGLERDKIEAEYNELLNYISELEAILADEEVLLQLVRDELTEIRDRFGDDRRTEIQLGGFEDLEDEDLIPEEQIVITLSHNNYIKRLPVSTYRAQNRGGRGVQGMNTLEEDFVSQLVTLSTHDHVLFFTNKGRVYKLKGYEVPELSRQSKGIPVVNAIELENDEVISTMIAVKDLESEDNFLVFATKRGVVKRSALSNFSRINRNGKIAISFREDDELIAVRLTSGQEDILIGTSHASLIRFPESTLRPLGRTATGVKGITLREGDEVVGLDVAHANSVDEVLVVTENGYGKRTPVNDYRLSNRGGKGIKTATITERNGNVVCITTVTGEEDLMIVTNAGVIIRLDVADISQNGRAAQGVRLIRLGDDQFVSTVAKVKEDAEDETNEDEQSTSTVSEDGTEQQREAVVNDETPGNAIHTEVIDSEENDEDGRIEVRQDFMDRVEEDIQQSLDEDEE
T2 sequence (P0C1U9 whole entry): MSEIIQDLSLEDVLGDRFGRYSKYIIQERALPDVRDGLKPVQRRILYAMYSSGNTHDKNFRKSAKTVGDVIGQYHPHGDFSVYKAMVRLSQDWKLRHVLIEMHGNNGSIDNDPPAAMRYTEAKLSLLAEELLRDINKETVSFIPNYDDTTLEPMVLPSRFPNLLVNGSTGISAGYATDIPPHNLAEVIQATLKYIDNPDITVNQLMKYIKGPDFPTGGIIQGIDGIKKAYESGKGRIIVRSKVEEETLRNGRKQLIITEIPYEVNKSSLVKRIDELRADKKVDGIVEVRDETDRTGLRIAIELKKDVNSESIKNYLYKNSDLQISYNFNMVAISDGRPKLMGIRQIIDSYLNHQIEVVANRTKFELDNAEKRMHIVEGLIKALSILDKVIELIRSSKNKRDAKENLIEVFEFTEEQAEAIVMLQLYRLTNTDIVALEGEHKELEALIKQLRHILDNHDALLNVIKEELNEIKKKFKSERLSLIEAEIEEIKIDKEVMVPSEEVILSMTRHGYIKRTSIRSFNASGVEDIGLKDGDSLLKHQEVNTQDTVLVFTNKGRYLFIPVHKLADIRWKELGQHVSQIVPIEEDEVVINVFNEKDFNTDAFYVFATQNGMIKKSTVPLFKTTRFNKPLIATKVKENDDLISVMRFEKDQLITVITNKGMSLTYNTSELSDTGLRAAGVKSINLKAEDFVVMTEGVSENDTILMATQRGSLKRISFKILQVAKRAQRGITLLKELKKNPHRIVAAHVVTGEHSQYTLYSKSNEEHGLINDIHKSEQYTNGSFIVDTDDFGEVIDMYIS
T2 sequence (P0C1S7 whole entry): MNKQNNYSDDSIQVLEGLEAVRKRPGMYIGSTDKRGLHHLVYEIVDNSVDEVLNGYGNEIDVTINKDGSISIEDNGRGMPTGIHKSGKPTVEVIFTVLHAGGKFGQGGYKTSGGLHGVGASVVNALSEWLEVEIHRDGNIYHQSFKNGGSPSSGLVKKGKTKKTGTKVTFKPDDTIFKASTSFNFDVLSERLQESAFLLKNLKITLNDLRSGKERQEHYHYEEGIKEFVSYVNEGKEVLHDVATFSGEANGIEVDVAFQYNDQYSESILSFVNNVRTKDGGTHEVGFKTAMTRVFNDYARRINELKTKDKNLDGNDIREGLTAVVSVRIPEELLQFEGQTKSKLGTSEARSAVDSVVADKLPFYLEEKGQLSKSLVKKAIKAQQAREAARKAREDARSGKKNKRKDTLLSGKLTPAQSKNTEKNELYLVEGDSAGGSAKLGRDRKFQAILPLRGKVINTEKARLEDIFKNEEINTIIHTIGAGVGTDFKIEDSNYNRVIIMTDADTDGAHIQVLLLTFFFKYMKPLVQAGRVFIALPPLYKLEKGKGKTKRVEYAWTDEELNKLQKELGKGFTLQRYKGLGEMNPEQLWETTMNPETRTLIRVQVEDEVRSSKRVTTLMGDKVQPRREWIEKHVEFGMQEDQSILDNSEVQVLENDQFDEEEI

Take `O=C(NC(=S)NNC(=O)c1cccc(Cl)c1Cl)c1ccc([N+](=O)[O-])cc1`: the MIC against Staphylococcus aureus [1] was above 62.5 µg/mL; in the assay with Staphylococcus aureus [4], 1.95 µg/mL (≈ 4.72 µM). Besides, the IC50 at DNA gyrase [2] and against Topoisomerase IV [3] was above 100 µM in each case.

`CN[C@H](CC(C)C)C(=O)N[C@H]1C(=O)N[C@@H](CC(N)=O)C(=O)N[C@H]2C(=O)N[C@H]3C(=O)N[C@H](C(=O)N[C@H](C(=O)O)c4cc(O)cc(O)c4-c4cc3ccc4O)[C@H](O)c3ccc(c(Cl)c3)Oc3cc2cc(c3O[C@@H]2O[C@H](CO)[C@@H](O)[C@H](O)[C@H]2O[C@H]2C[C@](C)(N)[C@H](O)[C@H](C)O2)Oc2ccc(cc2Cl)[C@H]1O` [VANCOMYCIN]: the MIC in the assay with Staphylococcus aureus [5] amounted to 0.25 µg/mL (≈ 0.173 µM); in the assay on Staphylococcus aureus [7], 1.56 µg/mL (≈ 1.08 µM). Further, the survival at 3.5 mg/kg in the assay with Staphylococcus aureus [6] came to 20%. In addition, the survival at 5 mg/kg with Staphylococcus aureus [8] was 50%. Also, the survival at 7 mg/kg in the assay on Staphylococcus aureus [9] is 50%. Moreover, the survival at 10 mg/kg in the assay on Staphylococcus aureus [10] turned out to be 60%.

As for `O=C(NC(=S)NNC(=O)c1cc2ccccc2[nH]1)c1ccccc1`, the IC50 was above 50 µM against DNA gyrase [11] and above 10 µM against Topoisomerase IV [12]. In the assay with Staphylococcus aureus [13], this compound displayed an MIC of 8 µg/mL (≈ 23.6 µM).

Take `Cc1ccc(C(=O)NC(=S)NNC(=O)c2ccc(Cl)cc2)cc1C`: the MIC against Staphylococcus aureus [14] was found to be 16 µg/mL (≈ 44.2 µM). Besides, the IC50 in assay [15] was above 50 µM.

For orientation: MIC means the smallest concentration in the dilution series that meets the test's criterion for growth inhibition. Usually IC50 stands for the point on the concentration scale where inhibition reaches its midpoint. Low readings indicate greater potency in that assay, high ones weaker potency in that assay.
